Entries after “also recorded” stand apart in the source; their conditions may differ. Like-named read-outs stand apart in the source and are kept apart here.
Columns and labels:
[1] = tested on: primary normal human adult melanocytes; assay: Melanin content in melanocytes; assay type: cell-based; conditions: for Melanin Content (absorbance at 400 nm): 24 hours
Protocol: (§1) The effect of sitaxentan on human melanocytes was measured. For these assays cells were grown for 24 hours in the presence of vehicle control, sitaxentan, and bosentan. The appropriate assay reagents and measuring techniques were used as indicated herein. Melanocytes, from either Caucasian or African American donors, were grown to confluence in 6-well tissue culture plates using LLCT DermaLife Ma complete medium and treated with compounds for 24 hours. Treated cells were removed from the plate with 0.25% trypsin for 10 minutes and then centrifuged at 0.4 g for 5 minutes. The resulting cell pellet was resuspended in 50 μL of 1M NaOH/10% DMSO solution. The resultant suspension was vortexed for 30 seconds. The suspension was then baked in a drying oven at 80° C. for 1 hour. The suspension was vortexed again for 30 seconds and then transferred to a black half-area 96-well plate and read in a UV/VIS spectrophotometer at 400 nm. Data were analyzed using GraphPad Prism 7.

[2] = tested on: normal human dermal fibroblasts (NHDFs) stimulated with TGF-β1; assay: Cell cytotoxicity in TGF-β1 induced normal human dermal fibroblasts; assay type: cell-based; conditions: for Cell Cytotoxicity: 48 hours, 50 ng/mL TGF-β1; for Cytotoxicity, result in words: compared with vehicle control and between compounds
Protocol: The effect of sitaxentan on cell viability, cell cytotoxicity, and apoptosis was measured in an assay using normal human dermal fibroblasts induced with TGF-β1 into a profibrotic phenotype. For these assays cells were grown for 48 hours in the presence of vehicle control, sitaxentan, and bosentan. The appropriate assay reagents and measuring techniques were used as indicated herein.
normal human dermal fibroblast cells (LLCT FC0024 lot 03869_ fibroblast) were seeded to confluence in 96 well plates in 10% fetal bovine serum (FBS) Dulbecco's modified eagle medium (DMEM).
The cells were washed to remove the FBS, and serum free media was added overnight (O/N).
The cells were then stimulated with 50 ng/mL TGF-β1 and treated.
For the cell cytotoxicity assay:
20 μl of the Cytotoxicity Reagent (Promega, Cat #G6320) containing both GF-AFC Substrate and bis-AAF-R110 Substrate, for measuring dead cells (cytotoxicity), was added and briefly mixed.
The plates for the different assays were then incubated for 30 minutes at 37° C.
Fluorescence was measured at: 400Ex/505Em (Viability) and 485Ex/520Em (Cytotoxicity)
Data were analyzed using GraphPad Prism 7.
Six to nine replicates were run for each sample.

[3] = cited from earlier work
[4] = tested on: normal human dermal fibroblasts (NHDFs) stimulated with TGF-β1; assay: Apoptosis (Caspase-Glo 3/7) in TGF-β1 induced normal human dermal fibroblasts; assay type: cell-based; conditions: for Apoptosis: 48 hours, 50 ng/mL TGF-β1; for Apoptosis, result in words: after treatment, compared with vehicle control and between compounds
Protocol: For these assays cells were grown for 48 hours in the presence of vehicle control, sitaxentan, and bosentan. The appropriate assay reagents and measuring techniques were used as indicated herein. Normal human dermal fibroblast cells (LLCT FC0024 lot 03869_ fibroblast) were seeded to confluence in 96 well plates in 10% fetal bovine serum (FBS) Dulbecco's modified eagle medium (DMEM). The cells were washed to remove the FBS, and serum free media was added overnight (O/N). The cells were then stimulated with 50 ng/mL TGF-β1 and treated. For the apoptosis assay: 100 μl of Caspase-Glo® 3/7 Reagent (Promega, Cat #G6320), for the apoptosis assay, was added and briefly mixed. The plate was incubated for 30 minutes at room temperature prior to measurement of luminescence Data were analyzed using GraphPad Prism 7. Six to nine replicates were run for each sample.

[5] = in vivo; cited from earlier work
[6] = tested on: normal human dermal fibroblasts (NHDFs) stimulated with TGF-β1; assay: Cell viability in TGF-β1 induced normal human dermal fibroblasts; assay type: cell-based; conditions: for Cell Viability: 48 hours, 50 ng/mL TGF-β1
Protocol: For these assays cells were grown for 48 hours in the presence of vehicle control, sitaxentan, and bosentan. The appropriate assay reagents and measuring techniques were used as indicated herein. Normal human dermal fibroblast cells (LLCT FC0024 lot 03869_ fibroblast) were seeded to confluence in 96 well plates in 10% fetal bovine serum (FBS) Dulbecco's modified eagle medium (DMEM). The cells were washed to remove the FBS, and serum free media was added overnight (O/N). The cells were then stimulated with 50 ng/mL TGF-β1 and treated. For the cell viability assay: 20 μl of the Viability Reagent (Promega, Cat #G6320) containing both GF-AFC Substrate and bis-AAF-R110 Substrate, for measuring live cell viability, was added and briefly mixed. The plates for the different assays were then incubated for 30 minutes at 37° C. […] Data were analyzed using GraphPad Prism 7. Six to nine replicates were run for each sample.

[7] = molecular target: T1, endothelin-A (ET-A) receptor (Homo sapiens, UniProt P25101); conditions: cited from earlier work
T1 sequence (P25101 21-427): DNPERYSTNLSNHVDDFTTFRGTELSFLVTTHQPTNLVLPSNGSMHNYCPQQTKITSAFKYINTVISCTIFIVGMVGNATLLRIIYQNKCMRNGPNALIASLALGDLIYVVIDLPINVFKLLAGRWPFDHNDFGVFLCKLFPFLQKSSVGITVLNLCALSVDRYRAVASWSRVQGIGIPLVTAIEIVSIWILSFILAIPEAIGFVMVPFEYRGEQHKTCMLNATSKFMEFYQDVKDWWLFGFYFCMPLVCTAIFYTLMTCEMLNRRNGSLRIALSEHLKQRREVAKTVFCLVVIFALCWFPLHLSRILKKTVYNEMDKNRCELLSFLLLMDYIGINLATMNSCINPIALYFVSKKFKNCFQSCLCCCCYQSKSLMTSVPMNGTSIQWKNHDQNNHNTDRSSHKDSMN

[8] = tested on: primary normal human adult melanocytes; assay: Melanin content in melanocytes; assay type: cell-based; conditions: for Melanin Content (absorbance at 400 nm): 24 hours; remark: listed apart in the source
Protocol: as §1

## Cc1cc2c(cc1CC(=O)c1sccc1S(=O)(=O)Nc1onc(C)c1Cl)OCO2 [sitaxentan, N-(4-Chloro-3-methyl-5-isoxazolyl)-2-[(2-methyl-4,5-methylenedioxyphenyl)-acetyl]thiophene-3-sulfonamide]
[1]
  Effect on melanin content, result in words: superior to bosentan in reducing the melanin content; also recorded: significantly more effective than a vehicle control at reducing melanin content; also recorded: significantly decreased melanin content
[1]; 30 μM
  Melanin Content (absorbance at 400 nm): 0.579
[1]; 100 μM
  Melanin Content (absorbance at 400 nm): 0.544
[2]; 1 μM
  Cell Cytotoxicity: 4643.9 RFUs
[2]; 3 μM
  Cell Cytotoxicity: 5058.3 RFUs
[2]; 10 μM
  Cell Cytotoxicity: 4741.7 RFUs
[2]; 30 μM
  Cell Cytotoxicity: 3837.5 RFUs
[2]; 100 μM
  Cell Cytotoxicity: 2911.3 RFUs
[2]
  Cytotoxicity, result in words: neither bosentan nor sitaxentan was significantly more cytotoxic than the vehicle control
[2]; listed as sitaxsentan
  Cytotoxicity, result in words: significantly less cytotoxic to human skin cells than bosentan
[3]
  Protein binding: > 99%
[4]; 1 μM
  Apoptosis: 37593.4 RLUs
[4]; 3 μM
  Apoptosis: 39162.8 RLUs
[4]; 10 μM
  Apoptosis: 39512.0 RLUs
[4]; 30 μM
  Apoptosis: 46053.5 RLUs
[4]; 100 μM
  Apoptosis: 51050.2 RLUs
[4]
  Apoptosis, result in words: elevated; also recorded: significantly more potent effect than bosentan
[5]
  Metabolism: hepatic (CYP2C9- and CYP3A4-mediated)
[6]; 1 μM
  Cell Viability: 5678.3 RFUs
[6]; 3 μM
  Cell Viability: 5639.0 RFUs
[6]; 10 μM
  Cell Viability: 5600.5 RFUs
[6]; 30 μM
  Cell Viability: 5250.8 RFUs
[6]; 100 μM
  Cell Viability: 5171.0 RFUs
[6]; concentrations up to 100 μM
  Toxicity (cell viability), result in words: no significant toxicity was observed
[7]
  Selectivity for ET-A compared to ET-B (factor): 6000
[8]
  Effect on melanin content, result in words: superior to bosentan in reducing the melanin content; also recorded: significantly more effective than a vehicle control at reducing melanin content; also recorded: significantly decreased melanin content
[8]; 30 μM
  Melanin Content (absorbance at 400 nm): 0.471
[8]; 100 μM
  Melanin Content (absorbance at 400 nm): 0.46

## COc1ccccc1Oc1c(NS(=O)(=O)c2ccc(C(C)(C)C)cc2)nc(-c2ncccn2)nc1OCCO [bosentan]
[1]
  Effect on melanin content, result in words: no effect on melanin content
[1]; 30 μM
  Melanin Content (absorbance at 400 nm): 0.633
[1]; 100 μM
  Melanin Content (absorbance at 400 nm): 0.703
[2]; 1 μM
  Cell Cytotoxicity: 4256.9 RFUs
[2]; 3 μM
  Cell Cytotoxicity: 3954.2 RFUs
[2]; 10 μM
  Cell Cytotoxicity: 3764.0 RFUs
[2]; 30 μM
  Cell Cytotoxicity: 4607.5 RFUs
[2]; 100 μM
  Cell Cytotoxicity: 3929.0 RFUs
[2]
  Cytotoxicity, result in words: neither bosentan nor sitaxentan was significantly more cytotoxic than the vehicle control; also recorded: significantly more cytotoxic than sitaxentan
[4]; 1 μM
  Apoptosis: 39366.8 RLUs
[4]; 3 μM
  Apoptosis: 38639.8 RLUs
[4]; 10 μM
  Apoptosis: 38586.7 RLUs
[4]; 30 μM
  Apoptosis: 42825.2 RLUs
[4]; 100 μM
  Apoptosis: 43330.7 RLUs
[4]
  Apoptosis, result in words: elevated
[6]; 1 μM
  Cell Viability: 5406.8 RFUs
[6]; 3 μM
  Cell Viability: 5548.5 RFUs
[6]; 10 μM
  Cell Viability: 5521.2 RFUs
[6]; 30 μM
  Cell Viability: 5537.0 RFUs
[6]; 100 μM
  Cell Viability: 5584.3 RFUs
[8]
  Effect on melanin content, result in words: no effect on melanin content
[8]; 30 μM
  Melanin Content (absorbance at 400 nm): 0.511
[8]; 100 μM
  Melanin Content (absorbance at 400 nm): 0.497
